Publication PMC12336439 (Archiv Der Pharmazie, 2025)
Marks after values point to notes of the source that are not given here.

Experiments:
Assay type in all cases: binding
[1] = biological target: T1, USP7asoc (active site only cysteine) (Homo sapiens, UniProt Q93009, C300S/C315S/C334S/C478S/C488S/C510S); assay: Differential scanning fluorimetry (DSF), melting temperature shift of USP7asoc mutant; conditions: for ∆T m ± SD USP7asoc: 8 µM protein, 250 µM compound (1:31.25)
T1 construct: (208‐560, C300/315/334/448/478/510S); made in house

USP7asoc = biological target: T2, USP7asoc (Homo sapiens, UniProt Q93009, C300S/C315S/C334S/C478S/C488S/C510S); assay: Intact protein MS (UHPLC-ESI-MS), covalent modification of USP7asoc; conditions: 24 h incubation at 20°C, protein-to-compound ratio 1:31.25
T2 construct: (208‐560, C300/315/334/448/478/510S); made in house
Procedure: The DSF results described above were validated by UHPLC‐ESI‐MS to verify possible covalent binding through a corresponding mass shift. Intact protein MS is an important screening method in irreversible‐covalent hit identification and is especially suitable for covalent fragment‐based drug discovery (FBDD). It allows for the identification of covalent binders by detecting covalent protein‐compound adducts, thus making use of the stability of the covalent bond. USP7 was prepared in Tris buffer (25 mM Tris pH 8.0, 150 mM NaCl, 5 mM TCEP) with a protein‐to‐compound ratio of 1:31.25 and 5% (v/v) DMSO. The protein‐compound mixtures were all incubated at 20°C for 24 h on a rotating shaker. The analysis of intact protein mass was carried out using UHPLC‐ESI‐MS measurements, with data acquisition and data analysis as previously described.

USP7 = biological target: T3, USP7 (Homo sapiens, UniProt Q93009); assay: Intact protein MS (UHPLC-ESI-MS), covalent modification of USP7; conditions: 24 h incubation at 20°C, protein-to-compound ratio 1:31.25
T3 construct: USP7 catalytic domain (USP7CD) (208‐560); made in house
Procedure: The DSF results described above were validated by UHPLC‐ESI‐MS to verify possible covalent binding through a corresponding mass shift. Intact protein MS is an important screening method in irreversible‐covalent hit identification and is especially suitable for covalent fragment‐based drug discovery (FBDD). It allows for the identification of covalent binders by detecting covalent protein‐compound adducts, thus making use of the stability of the covalent bond.
USP7 was prepared in Tris buffer (25 mM Tris pH 8.0, 150 mM NaCl, 5 mM TCEP) with a protein‐to‐compound ratio of 1:31.25 and 5% (v/v) DMSO. The protein‐compound mixtures were all incubated at 20°C for 24 h on a rotating shaker. The analysis of intact protein mass was carried out using UHPLC‐ESI‐MS measurements, with data acquisition and data analysis as previously described.

T3 sequence (Q93009 with tags, fused parts or gaps): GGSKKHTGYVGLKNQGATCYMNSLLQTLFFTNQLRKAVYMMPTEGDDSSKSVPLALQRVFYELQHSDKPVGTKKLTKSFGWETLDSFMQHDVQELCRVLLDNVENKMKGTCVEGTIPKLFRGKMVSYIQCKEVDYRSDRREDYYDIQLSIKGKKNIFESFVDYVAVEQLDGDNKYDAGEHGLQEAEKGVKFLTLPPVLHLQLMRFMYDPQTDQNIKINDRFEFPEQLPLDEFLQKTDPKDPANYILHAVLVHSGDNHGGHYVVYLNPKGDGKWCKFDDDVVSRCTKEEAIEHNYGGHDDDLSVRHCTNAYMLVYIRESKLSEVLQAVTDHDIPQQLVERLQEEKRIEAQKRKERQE
T1 sequence (Q93009 with tags, fused parts or gaps C300S/C315S/C334S/C478S/C488S/C510S): as the sequence (Q93009 with tags, fused parts or gaps) above, with C96S, C111S, C130S, C274S, C284S, C306S counted along it
T2 sequence (Q93009 with tags, fused parts or gaps C300S/C315S/C334S/C478S/C488S/C510S): as the sequence (Q93009 with tags, fused parts or gaps) above, with C96S, C111S, C130S, C274S, C284S, C306S counted along it

Row | Compound | ∆T m ± SD USP7asoc ([1]; 30 min incubation at 20°C) | ∆T m ± SD USP7asoc ([1]; 4 h incubation at 20°C) | ∆T m ± SD USP7asoc ([1]; 24 h incubation at 20°C) | protein species in deconvoluted mass spectrum of USP7asoc (USP7asoc) | protein species in deconvoluted mass spectrum of USP7 (USP7) | ∆T m of small shoulder (second smaller peak) of the melting curve of USP7asoc ([1]; 24 h incubation, 250 µM compound)
1 | Cn1ccc(-c2cccc3cnc(Nc4nc(F)ccc4[N+](=O)[O-])cc23)c1 [7b, N‐(6‐Fluoro‐3‐nitropyridin‐2‐yl)‐5‐(1‐methyl‐1H‐pyrrol‐3‐yl)isoquinolin‐3‐amine] | 0.05 ± 0.09 °C | 0.45 ± 0.12 °C | 0.38 ± 0.06 °C | unmodified protein species as a main peak for both USP7 and USP7asoc | unmodified protein species as a main peak for both USP7 and USP7asoc | 
2 | CCn1cc(-c2cccc3cnc(Nc4nc(F)ccc4[N+](=O)[O-])cc23)cn1 [7c, 5‐(1‐Ethyl‐1H‐pyrazol‐4‐yl)‐N‐(6‐fluoro‐3‐nitropyridin‐2‐yl)isoquinolin‐3‐amine] | –0.25 ± 0.23 °C | 0.20 ± 0.09 °C | 0.23 ± 0.08 ^b °C | mainly showed the attachment of a single molecule to USP7 and USP7asoc | mainly showed the attachment of a single molecule to USP7 and USP7asoc | 
3 | CCCn1cc(-c2cccc3cnc(Nc4nc(F)ccc4[N+](=O)[O-])cc23)cn1 [7d, N‐(6‐Fluoro‐3‐nitropyridin‐2‐yl)‐5‐(1‐propyl‐1H‐pyrazol‐4‐yl)isoquinolin‐3‐amine] | 0.00 ± 0 °C | 0.03 ± 0.08 °C | 0.35 ± 0.06 °C | single modified protein as the main signal | single modified protein as the main signal | 
4 | O=[N+]([O-])c1ccc(F)nc1Nc1cc2c(-c3cnn(C4CC4)c3)cccc2cn1 [7e, 5‐(1‐Cyclopropyl‐1H‐pyrazol‐4‐yl)‐N‐(6‐fluoro‐3‐nitropyridin‐2‐yl)isoquinolin‐3‐amine] | –0.35 ± 0.09 °C | –0.13 ± 0.04 °C | 0.40 ± 0.09 ^b °C | mono‐arylated USP7 and USP7asoc species as main peaks | mono‐arylated USP7 and USP7asoc species as main peaks | about –5 °C
5 | O=[N+]([O-])c1ccc(F)nc1Nc1cc2c(-c3ccc(-c4ccncc4)cc3)cccc2cn1 [7i, N‐(6‐Fluoro‐3‐nitropyridin‐2‐yl)‐5‐[4‐(pyridin‐4‐yl)phenyl]isoquinolin‐3‐amine] | –0.30 ± 0.12 °C | –0.15 ± 0 °C | 0.05 ± 0.17 °C | unmodified USP7 and USP7asoc as the main peak | unmodified USP7 and USP7asoc as the main peak | 
